Several values for one entry are separate records, joined by “and”; a condition that tells them apart may be missing. Identical values can stand only once. No end group written: not given here.
What was measured:
[1] = system: Monocyte-derived macrophages (CD23+); test: Quantification of inflammatory response: nitrites (Greiss) from CD23-activated human macrophages, % inhibition relative to controls; format: cell-based; conditions: human macrophages activated through CD23
From the text: Monocytes are isolated from normal human peripheral blood. Samples are collected from normal volunteers (20-50 years) by blood bank. They are all tested for the absence of HIV or HBV contaminations prior to use. Human normal mononuclear cells are obtained by Ficoll (Histopaque, Sigma) gradient separation of peripheral blood leukocytes. Monocytes are separated from lymphocytes by adherence to plastic dishes coated with fetal calf serum (FCS) as described (Vouldoukis I., et al., Proc. Natl. Acad. Sci. USA., 92: 7804-7808 1995). Following this procedure, >90% of cells express CD14 antigen and display cytochemical characteristics of monocytes. The cells are then incubated in DMEM supplemented with L-non-essential amino acids, sodium pyruvate, glutamine, penicillin, streptomycin, and 10% FCS (all from Gibco Laboratories, Grand Island, N.Y.). Above culture medium, chemicals, and FCS are tested for the absence of direct activation effect on human monocytes (CD23 expression and TNF-α production as activation markers). Following 24-48 hr adherence to culture flasks, these cells differentiate into macrophage-like cells displaying non-specific esterase activity that is inhibited by sodium fluoride.
Normal human donor-derived adherent cells have low if any surface CD23 expression and are designated in the present work as macrophages. CD23 expression is obtained following cell incubation with recombinant human interleukin 4 ([…]). […] Tissue-derived macrophages are mostly CD23^+.
Monocyte-derived macrophages (CD23^+) are activated through the cross-linking of their CD23 surface molecules by appropriate MoAb (20 μg/ml, clone 135, IgG1κ isotype) or by human IgE/anti-IgE complexes (IgE, Stallergene, Paris, France; goat anti-human-IgE, Nordic Immunology, Tilburg, The Netherlands). This activation pathway promotes the activation of iNOS mRNA transcription and the generation, by macrophages, of various inflammatory mediators such as nitric oxide (NO), TNF-α, reactive oxygen radicals, IL-1, and IL-6 (for, a review see: Dugas B, et al., Immunol Today, 16:574-580(1995)).
Following 1-3 day incubation at 37° C., 5% CO2 in humid atmosphere, macrophages are analyzed for their inflammatory response as following:
48-96 hr incubation: Collection of supernatants for the detection of cytokines and nitrites. Nitrites are quantified by Greiss method (Davies et al., Methods in Molecular Biology, 225:305-320, 2003) while IL-1, IL-6 and TNF-α: were quantified using commercial ELISA kits. The following antibodies and reagents were utilized:
Following quantitation of nitrites, a percentage inhibition relative to controls is calculated.

[2] = system: rat peritoneal macrophages and rat peripheral macrophages; test: NO production from rat peritoneal and peripheral macrophages induced by IgE/DNP-BSA; format: cell-based; conditions: peptide 4 hours, 3-5 day incubation
Method: NO production from rat peritoneal macrophages and rat peripheral macrophages is also determined. Peritoneal macrophages are highly CD23^+ and produce much higher quantities of pro-inflammatory mediators compared to peripheral blood-derived cells. CD23^+ cells are incubated in the presence or the absence of an inhibitory peptide (p30A) for 4 hours. IgE/DNP-BSA is added to induce CD23 cross-linking. L-NIL is a specific inhibitor of NOS-II. Pep− is a negative control peptide. Following 3-5 day incubation, cell supernatants are harvested and the level of nitrites quantified by Greiss reaction (Davies et al., Methods in Molecular Biology, 225:305-320, 2003).

[3] = system: Adjuvant arthritis (AA) rats; test: In vivo prevention and treatment of adjuvant arthritis in rats with p30A; parameters: species or system Lewis rats
Method: Each group of animals comprises eight rats. Female Lewis rats (Janvier, Le Genest St Isle, France) are housed under standard laboratory conditions and the animals are allowed free access to food and water. The temperature is kept at 22±2° C. and a 12-hour light/dark schedule is maintained. All animal procedures are performed in strict accordance with the guidelines issued by the European Economic Community “86/609”. Adjuvant arthritis (AA) is induced in six weeks-old animals by subcutaneous injection at the base of the tail of 300 μl (1.8 mg) of inactivated Mycobacterium butyricum (Difco Laboratories, Detroit, Mich.) diluted in emulsion of 8 ml Vaseline, 1 ml polysorbate 80, and 1 ml PBS (Phosphate Buffer Saline, BioWhittaker, Walkersville, Md.). Rats are boosted one week later with the same dose of antigen and observed for up to 50 days following immunization for clinical symptoms of arthritis. Evaluation of AA severity is performed by two independent observers with no knowledge of the treatment protocol. The severity of AA in each paw is quantified daily by a clinical score measurement from 0 to 2 as following: no signs of inflammation (0); swelling alone (>2 fold paw diameter) (0.5) or swelling/immobility (1.0) of one paw; swelling (1,5) or swelling/immobility (2,0) of two paws. Weight evolution of the animals is measured daily. Rats are injected with peptides or peptidomimetics (dissolved in 0.1% DMSO) I.C. every two days (day 0, 2, 4, 6, and 8) during the initiation of inflammation (preventive) or following the appearance of the inflammatory signs. As negative control, rats are injected with saline.
Clinical scores are determined as described above, and the cumulative clinical score is plotted against days post-immunization (FIGS. 2, 3, and 4).
In each of FIGS. 2, 3, and 4, arrows below the x-axis indicate the days on which IC injections were administered.

CD23+ cells [4] = test: Inhibition of TNF-α generation from activated macrophages (ELISA); format: cell-based, human
Method: (§1) For inflammatory functions, cells are pre-incubated with CD23-counterstructures during 4 hours prior to their incubation with CD23-MoAb or IgE/anti-IgE complexes. Cell supernatants are collected 2-4 days later and tested for their contents in various mediators.
In addition to NO, the effect of peptides on the production of TNF-α, a well-documented effector factor during inflammatory diseases, is also tested.
(§2) CD23^+ cells are incubated in the presence or the absence of an inhibitory peptide (p30A) for 4 hours. CD23-MoAb or IgE/anti-IgE immune complexes are added. Following 3-5 day incubation, cell supernatants are harvested and the level of TNF-α, quantified by specific ELISA.

CD23+ cells [5] = test: Inhibition of NO generation from activated macrophages (nitrites by Greiss reaction); format: cell-based, human; conditions: peptide 4 hours, then IgE/anti-IgE; 3-5 day incubation
Method: as §1
Inflammatory responses of human macrophages almost correlated with in vivo generation of nitric oxide by these cells. We use this inflammatory mediator as a marker of cell activation.
as §2, with “nitrites” for “TNF-α,”, “Greiss reaction (Davies et al., Methods in Molecular Biology, 225:305-320, 2003).” for “specific ELISA.”

[6] = system: macrophages derived from peripheral blood or the synovial fluid of patients with Rheumatoid Arthritis; test: TNF-α generation by macrophages from peripheral blood or synovial fluid of patients with Rheumatoid Arthritis; format: cell-based, human; conditions: for level of TNF-α: p30A + CD23-Ab
Method: as §2, with “ELISA. The effect of CD23-Peptide or a negative control on inflammatory functions of macrophages derived from peripheral blood or the synovial fluid of patients with Rheumatoid Arthritis is also investigated.” for “ELISA.”

arthritic rats = test: Treatment of arthritic rats (Mycobacterium butyricum-induced arthritis); format: in vivo, Lewis rats
Method: On day 0, 6-week old female Lewis rats weighing 145-155 g are injected subcutaneously with an arthritis-inducing emulsion. The rats are injected with 300 μl of the emulsion which contains: • 2 mg/rat heat-inactivated Mycobacterium butyricum diluted into; • 240 μl of Vaseline; • 30 μl of Tween-20; and • 30 μl of PBS.
The immunization step is repeated on day 7. The rats present arthritis signs by days 15 have to 21. Arthritic signs are assigned a clinical score (1-4). By day 40, the clinical scores increase from 1 to 3 or 4. Slower weight progression is also observed in immunized rats (FIG. 1a).
However, subcutaneous injection of 5 mg of p30A after the appearance of clinical signs results in complete remission of arthritic symptoms for 50% of the rats (FIG. 1b) as well as decreased clinical scores in 25% of the remaining rats.

[7] = system: macrophages derived from synovial fluid of patients with Rheumatoid Arthritis; test: NO generation by macrophages derived from synovial fluid of patients with Rheumatoid Arthritis; format: cell-based, human; conditions: RA synovial fluid macrophages
Method: CD23^+ cells are incubated in the presence or the absence of an inhibitory peptide […]) for 4 hours. CD23-MoAb or IgE/anti-IgE immune complexes are added. Following 3-5 day incubation, cell supernatants are harvested and the level of nitrites quantified by Greiss reaction (Davies et al., Methods in Molecular Biology, 225:305-320, 2003). The effect of CD23-Peptide or a negative control on inflammatory functions of macrophages derived from synovial fluid of patients with Rheumatoid Arthritis is also investigated.

[8] = Peripheral Macrophages of RA patients
[9] = subcutaneous injection of 5 mg after the appearance of clinical signs

Ac N W BetaA CO2H [Compound 410]
% Inhibition (nitrites relative to controls; inhibition of iNOS production) [1]: 61%

Ac N W CO2H [Compound 411]
% Inhibition (nitrites relative to controls; inhibition of iNOS production) [1]: 84%

Ac n w CO2H [Compound 492]
% Inhibition (nitrites relative to controls; inhibition of iNOS production) [1]: 77%

Ac w n CO2H [Compound 491]
% Inhibition (nitrites relative to controls; inhibition of iNOS production) [1]: 94%

F H E N W beta A S [Compound 328]
% Inhibition (nitrites relative to controls; inhibition of iNOS production) [1]: 26%

FHENWPS [p30A]
IgE/DNP-BSA-induced NO production by macrophages [2]: inhibits IgE/DNP-BSA-induced NO production
cumulative clinical score, preventive treatment (FIG. 2) ([3]; injections every two days from immunization, two dosage regimes, versus control rats): clearly superior clinical scores compared to control rats
weight gain (FIG. 4) ([3]; rats with arthritic symptoms, versus untreated arthritic rats): produced weight gain
cumulative clinical score, therapeutic treatment (FIG. 3) ([3]; treated from day of first symptoms, 3 dosage regimes, versus control rats): clear therapeutic effect
% Inhibition of TNF-α (CD23+ cells [4]; p30A + CD23-Ab versus CD23-Ab): 47% and 54%
level of TNF-α (CD23+ cells [4]; peptide 4 hours, then CD23-Ab, 3-5 day incubation): 77 pg TNF-α/ml and 89 pg TNF-α/ml
level of nitrites [NO2-] (CD23+ cells [5]): 2.6 µM and 1.4 µM
% Inhibition of TNF-α [6, 8]: 73%
level of TNF-α [6, 8]: 40 pg TNF-α/ml
% Inhibition of TNF-α ([6]; SF Macrophages of RA patients): 41%
level of TNF-α ([6]; SF Macrophages of RA patients): 140 pg TNF-α/ml
remission of the arthritic condition (arthritic rats; intraperitoneal injection or intravenous treatment): do not induce remission
remission of arthritis (FIG. 1b) (arthritic rats; subcutaneous injection of 5 mg): results in remission
complete remission of arthritic symptoms (arthritic rats; [9]): 50 % of the rats
decreased clinical scores (arthritic rats; [9]): 25 % of the remaining rats
arthritis appearance (arthritic rats; unique injection (intraperitoneal or subcutaneous) at day 0): no affect on arthritis appearance
level of nitrites [NO2-] ([7]; peptide + CD23-Ab): 7.9 µM and 9.5 µM
level of nitrites [NO2-] ([7]; peptide alone (no CD23-Ab)): 8.5 µM and 10.3 µM

G[allyl-] N W G[allyl-] S [Compound 490]
% Inhibition (nitrites relative to controls; inhibition of iNOS production) [1]: 81%

H E N W S [Compound 437]
% Inhibition (nitrites relative to controls; inhibition of iNOS production) [1]: 56%

H E N W Sar S [Compound 398]
% Inhibition (nitrites relative to controls; inhibition of iNOS production) [1]: 74%

NH2 G[allyl-] N W G[allyl-] [Compound 489]
% Inhibition (nitrites relative to controls; inhibition of iNOS production) [1]: 62%
